In the supplement of paper PMC13386468:

How the values were obtained:
Assay in all cases: IC50 for competition of protein binding to Kinobeads
Conditions in all cases: assay detail: Kinobeads competition in P. falciparum blood-stage lysate
[1] = target: UniProt Q8ILI2
[2] = target: UniProt Q8IHR8
[3] = target: UniProt Q8ILF0
[4] = target: UniProt Q8ID96
[5] = target: UniProt Q8IIG6
[6] = target: UniProt C0H529
[7] = target: UniProt O97241
[8] = target: UniProt Q8IJD0
[9] = target: UniProt Q8ID50
[10] = target: UniProt Q8ILK2
[11] = target: UniProt Q8IDV1
[12] = target: UniProt Q8IC05
[13] = target: UniProt Q76NM8
[14] = target: UniProt Q8IBQ6
[15] = target: UniProt Q8IJ74
[16] = target: UniProt Q6LFH8
[17] = target: UniProt Q8IIJ9
[18] = target: UniProt Q8IB60
[19] = target: UniProt O97231
[20] = target: UniProt Q8IDR5
[21] = target: UniProt C6KTB9
[22] = target: UniProt Q8I2A1
[23] = target: UniProt Q8IJQ9
[24] = target: UniProt Q8I202
[25] = target: UniProt Q8II23
[26] = target: UniProt Q8I501
[27] = target: UniProt Q8I231
[28] = target: UniProt Q8I5F9
[29] = target: UniProt Q8ILS0
[30] = target: UniProt Q8IIA2
[31] = target: UniProt Q8IFM0
[32] = target: UniProt Q8IKN7
[33] = target: UniProt Q8I512
[34] = target: UniProt Q8ILT0
[35] = target: UniProt C6KSY0
[36] = target: UniProt Q8I5V9
[37] = target: UniProt Q8IJN8
[38] = target: UniProt Q8I249
[39] = target: UniProt C0H4S8
[40] = target: UniProt Q8ILZ7
[41] = target: UniProt Q8ILH5
[42] = target: UniProt Q8I3U9
[43] = target: UniProt Q8I488
[44] = target: UniProt Q8IHN4
[45] = target: UniProt Q8I479
[46] = target: UniProt Q8IAU1
[47] = target: UniProt Q8IIE7
[48] = target: UniProt Q8IKS3
[49] = target: UniProt Q8I1T8
[50] = target: UniProt C6KT76
[51] = target: UniProt Q8I5A9
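Further: native unpurified kinases from lysate captured on beads bearing immobilized kinase inhibitors, with bead-bound kinases quantified by mass spectrometry across compound doses.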

Chain of UniProt Q8I1T8 (Q8I1T8 whole entry): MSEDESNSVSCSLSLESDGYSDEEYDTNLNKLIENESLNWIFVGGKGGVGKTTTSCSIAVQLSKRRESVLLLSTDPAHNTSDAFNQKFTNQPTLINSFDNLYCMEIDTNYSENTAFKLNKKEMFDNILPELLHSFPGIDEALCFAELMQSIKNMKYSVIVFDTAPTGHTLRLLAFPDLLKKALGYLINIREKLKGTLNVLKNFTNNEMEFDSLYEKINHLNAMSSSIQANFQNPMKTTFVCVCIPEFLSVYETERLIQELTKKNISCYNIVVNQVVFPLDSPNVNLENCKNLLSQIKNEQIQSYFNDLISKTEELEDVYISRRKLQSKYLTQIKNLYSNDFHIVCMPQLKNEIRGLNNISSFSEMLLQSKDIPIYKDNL
Chain of UniProt Q6LFH8 (Q6LFH8 whole entry): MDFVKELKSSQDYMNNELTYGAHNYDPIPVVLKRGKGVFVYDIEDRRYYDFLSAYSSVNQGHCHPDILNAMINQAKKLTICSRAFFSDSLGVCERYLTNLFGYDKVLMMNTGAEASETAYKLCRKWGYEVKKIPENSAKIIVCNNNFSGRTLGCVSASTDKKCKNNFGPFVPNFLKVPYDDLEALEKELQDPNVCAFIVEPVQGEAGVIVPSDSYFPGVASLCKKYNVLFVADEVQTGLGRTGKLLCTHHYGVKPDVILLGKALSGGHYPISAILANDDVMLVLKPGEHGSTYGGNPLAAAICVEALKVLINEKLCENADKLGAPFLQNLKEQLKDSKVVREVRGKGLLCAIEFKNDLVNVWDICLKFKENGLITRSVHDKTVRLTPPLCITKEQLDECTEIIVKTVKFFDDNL
Chain of UniProt O97231 (O97231 whole entry): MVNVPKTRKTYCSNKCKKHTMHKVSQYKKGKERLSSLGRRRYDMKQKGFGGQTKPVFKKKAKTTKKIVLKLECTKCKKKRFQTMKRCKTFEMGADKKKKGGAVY
Chain of UniProt Q8IIJ9 (Q8IIJ9 whole entry): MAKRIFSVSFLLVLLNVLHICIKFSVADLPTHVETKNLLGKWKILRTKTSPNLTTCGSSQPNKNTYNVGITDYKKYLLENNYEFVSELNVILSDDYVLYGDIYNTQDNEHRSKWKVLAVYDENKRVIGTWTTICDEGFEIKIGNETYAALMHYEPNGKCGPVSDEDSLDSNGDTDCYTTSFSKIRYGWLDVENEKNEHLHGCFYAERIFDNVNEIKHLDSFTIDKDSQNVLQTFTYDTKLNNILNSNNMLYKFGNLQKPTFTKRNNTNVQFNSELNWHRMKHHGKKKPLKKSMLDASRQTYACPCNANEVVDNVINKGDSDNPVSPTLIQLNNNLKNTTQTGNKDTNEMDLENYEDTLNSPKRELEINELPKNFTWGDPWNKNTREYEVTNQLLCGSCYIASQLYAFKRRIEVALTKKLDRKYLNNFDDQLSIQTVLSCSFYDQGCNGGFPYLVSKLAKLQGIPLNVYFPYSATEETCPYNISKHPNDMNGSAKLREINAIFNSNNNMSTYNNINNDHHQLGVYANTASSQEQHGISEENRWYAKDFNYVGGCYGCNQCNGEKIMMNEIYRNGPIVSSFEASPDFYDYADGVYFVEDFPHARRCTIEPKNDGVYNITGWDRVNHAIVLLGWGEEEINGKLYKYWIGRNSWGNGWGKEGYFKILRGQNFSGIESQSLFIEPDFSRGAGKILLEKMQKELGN

O=c1[nH]c2ccc(Cl)cc2c(NC2CN3CCC2CC3)c1-c1nc2ccccc2[nH]1 (stereo unspecified) [CHIR-124]
IC50 [1]: > 20 µM
IC50 [2]: > 20 µM
IC50 [3]: > 20 µM
IC50 [4]: > 20 µM
IC50 [5]: > 20 µM
IC50 [6]: > 20 µM
IC50 [7]: > 20 µM
IC50 [8]: > 20 µM
IC50 [9]: > 20 µM
IC50 [10]: > 20 µM
IC50 [11]: > 20 µM
IC50 [12]: > 20 µM
IC50 [13]: > 20 µM
IC50 [14]: > 20 µM
IC50 [15]: > 20 µM
IC50 [16]: > 20 µM
IC50 [17]: > 20 µM
IC50 [18]: > 20 µM
IC50 [19]: > 20 µM
IC50 [20]: > 20 µM
IC50 [21]: > 20 µM
IC50 [22]: > 20 µM
IC50 [23]: > 20 µM
IC50 [24]: > 20 µM
IC50 [25]: > 20 µM
IC50 [26]: > 20 µM
IC50 [27]: > 20 µM
IC50 [28]: > 20 µM
IC50 [29]: > 20 µM
IC50 [30]: > 20 µM
IC50 [31]: > 20 µM
IC50 [32]: > 20 µM
IC50 [33]: > 20 µM
IC50 [34]: > 20 µM
IC50 [35]: > 20 µM
IC50 [36]: > 20 µM
IC50 [37]: > 20 µM
IC50 [38]: > 20 µM
IC50 [39]: > 20 µM
IC50 [40]: > 20 µM
IC50 [41]: > 20 µM
IC50 [42]: > 20 µM
IC50 [43]: > 20 µM
IC50 [44]: > 20 µM
IC50 [45]: > 20 µM
IC50 [46]: > 20 µM
IC50 [47]: 0.177 µM
IC50 [48]: > 20 µM
IC50 [49]: > 20 µM
IC50 [50]: > 20 µM
IC50 [51]: > 20 µM
